Measured values reported in patent publication EP4813977A1, “NOVEL COMPOUND AND USE THEREOF” (Protier Biotech Inc., priority 2023, dated 2025).

Tests used:
Cereblon (CRBN) protein = target: T1, Cereblon (CRBN) protein (Homo sapiens, UniProt Q96SW2); assay: CRBN binding affinity, E3scan (Eurofins) competition binding with qPCR read-out; conditions: lower % Ctrl = stronger binding, DMSO = 100 % Ctrl, lenalidomide = 0 % Ctrl
T1 construct: purchased Eurofins (E3scan service); host or cells: HEK-293
Procedure: Specifically, CRBN was produced using a HEK-293 cell line and labeled with DNA for qPCR detection. Streptavidin-coated magnetic beads were treated with a biotinylated small-molecule ligand at room temperature for 30 minutes to generate an affinity resin for E3scan analysis. The liganded beads were blocked with excess biotin and washed with a blocking buffer (SeaBlock (Pierce), 1 % BSA, 0.05 % Tween 20, 1 mM DTT) to remove unbound ligands and prevent non-specific binding. […] The test compound was prepared as a 100× stock in 100 % DMSO and diluted directly into the assay solution. All reactions were performed in a polypropylene 384-well plate with a final reaction volume of 0.02 mL. […] The CRBN concentration in the eluate was measured by qPCR. […] A lower '% Ctrl' indicates a stronger binding affinity. […] ((test compound signal−positive control signal)/(negative control signal−positive control signal)) × 100 [formula]

[1] = system: T-cell leukemia cell line Jurkat; assay: Cell viability assay (Cell Counting Kit-8), Jurkat; format: cell-based; conditions: Homo sapiens, 72 hours, CCK-8, absorbance 450 nm
Procedure: (§1) To evaluate the cytotoxicity of the compounds synthesized in the Preparation Examples against cancer cells, a cell viability assay following treatment with the synthesized compounds was performed using a T-cell leukemia cell line Jurkat (KCLB, Cat# 40152), a human acute monocytic leukemia cell line MV-4-11 (ATCC, Cat# CRL-9591), and a human multiple myeloma cell line MM.1S (ATCC, Cat# CRL-2974).
(§2) As a culture medium for the cell lines, an RPMI medium containing 10 % heat-inactivated FBS and 1 % penicillin/streptomycin (P/S) antibiotics was used. The culture medium was stored refrigerated and warmed in a 37 °C water bath before use. Each cell line was used for the test after a stabilization period of at least 2 weeks after thawing, and cell culture was performed based on information provided by the cell line manufacturer regarding the thawing and subculture conditions.
(§3) The Jurkat, MV-4-11, or MM.1S cell line was seeded in a 96-well plate at a density of 1 × 10^4 cells/well and incubated in a 37 °C CO2 incubator overnight. After incubation, a prepared test compound was applied to each cell line, and the cells were incubated in a 37 °C CO2 incubator for 72 hours. After 72 hours of incubation, a Cell Counting Kit-8 (Dojindo, Cat# CK04-20) reagent was added, and the cells were incubated in a 37 °C CO2 incubator. Then, the absorbance was measured at 450 nm using a SpectraMax M3 Microplate Reader (N=2, duplicate measurement). The evaluation concentrations for evaluating the cytotoxicity of the compounds were 10 points: 100 µM, 20 µM, 4 µM, 0.8 µM, 0.16 µM, 0.032 µM, 0.0064 µM, 0.00128 µM, 0.000256 µM, and 0 µM, and the test was performed at 2 wells/concentration point (n=2). A GI50 was derived using a GraphPad Prism program.

[2] = system: human acute monocytic leukemia cell line MV-4-11; assay: Cell viability assay (Cell Counting Kit-8), MV-4-11; format: cell-based; conditions: MV4-11, 72 hours, CCK-8, absorbance 450 nm
Procedure: as §1, §2, §3

[3] = system: human multiple myeloma cell line MM.1S; assay: Cell viability assay (Cell Counting Kit-8), MM.1S; format: cell-based; conditions: MM1.S, 72 hours, CCK-8, absorbance 450 nm
Procedure: as §1, §2, §3

O=C1CCC(N2Cc3cc(C(=O)c4cc5ccccc5[nH]4)ccc3C2=O)C(=O)N1 (stereo not drawn) [Compound 3, 3-(5-(1H-indole-2-carbonyl)-1-oxoisoindolin-2-yl)piperidine-2,6-dione]
CRBN binding affinity (% Ctrl @ 5µM) (Cereblon (CRBN) protein): A (0 ≤ '% Ctrl' < 0.1) | GI50 [1]: ≤ 100 nM | GI50 [2]: ≤ 100 nM | GI50 [3]: ≤ 100 nM

O=C1CCC(N2Cc3cc(C(=O)c4c[nH]c5ccccc45)ccc3C2=O)C(=O)N1 (stereo not drawn) [Compound 4, 3-(5-(1H-indole-3-carbonyl)-1-oxoisoindolin-2-yl)piperidine-2.6-dione]
CRBN binding affinity (% Ctrl @ 5µM) (Cereblon (CRBN) protein): B (0.1 ≤ '% Ctrl' < 1) | GI50 [1]: 100 to 1000 nM | GI50 [3]: ≤ 100 nM

O=C1CCC(N2Cc3cc(C(=O)c4cc5cc(F)ccc5[nH]4)ccc3C2=O)C(=O)N1 (stereo not drawn) [Compound 9, 3-(5-(5-fluoro-1H-indole-2-carbonyl)-1-oxoisoindolin-2-yl)piperidine-2,6-dione]
GI50 [1]: ≤ 100 nM | GI50 [3]: ≤ 100 nM

O=C1CCC(N2Cc3cc(C(=O)c4ccc(Nc5ccccc5)cc4)ccc3C2=O)C(=O)N1 (stereo not drawn) [Compound 15, 3-(1-oxo-5-(4-(phenylamino)benzoyl)isoindolin-2-yl)piperidine-2,6-dione]
CRBN binding affinity (% Ctrl @ 5µM) (Cereblon (CRBN) protein): A (0 ≤ '% Ctrl' < 0.1) | GI50 [1]: 100 to 1000 nM | GI50 [2]: ≤ 100 nM | GI50 [3]: ≤ 100 nM

O=C1CCC(N2Cc3cc(C(=O)c4n[nH]c5ccccc45)ccc3C2=O)C(=O)N1 (stereo not drawn) [Compound 17, 3-(5-(1H-indazole-3-carbonyl)-1-oxoisoindolin-2-yl)piperidine-2,6-dione]
CRBN binding affinity (% Ctrl @ 5µM) (Cereblon (CRBN) protein): A (0 ≤ '% Ctrl' < 0.1) | GI50 [1]: 100 to 1000 nM | GI50 [2]: ≤ 100 nM | GI50 [3]: ≤ 100 nM

O=C1CCC(N2Cc3cc(C(=O)c4c[nH]c5cc(Cl)ccc45)ccc3C2=O)C(=O)N1 (stereo not drawn) [Compound 18, 3-(5-(6-chloro-1H-indole-3-carbonyl)-1-oxoisoindolin-2-yl)piperidine-2,6-dione]
GI50 [1]: 100 to 1000 nM | GI50 [2]: ≤ 100 nM | GI50 [3]: ≤ 100 nM

O=C1CCC(N2Cc3cc(C(=O)c4cc5ccc(F)cc5[nH]4)ccc3C2=O)C(=O)N1 (stereo not drawn) [Compound 19, 3-(5-(6-fluoro-1H-indole-2-carbonyl)-1-oxoisoindolin-2-yl)piperidine-2,6-dione]
GI50 [1]: ≤ 100 nM | GI50 [3]: ≤ 100 nM

O=C1CCC(N2Cc3cc(C(=O)c4cc5ccc(Cl)cc5[nH]4)ccc3C2=O)C(=O)N1 (stereo not drawn) [Compound 20, 3-(5-(6-chloro-1H-indole-2-carbonyl)-1-oxoisoindolin-2-yl)piperidine-2,6-dione]
GI50 [1]: ≤ 100 nM | GI50 [3]: ≤ 100 nM

O=C1CCC(N2Cc3cc(C(=O)c4ccc5cn[nH]c5c4)ccc3C2=O)C(=O)N1 (stereo not drawn) [Compound 21, 3-(5-(1H-indazole-6-carbonyl)-1-oxoisoindolin-2-yl)piperidine-2,6-dione]
CRBN binding affinity (% Ctrl @ 5µM) (Cereblon (CRBN) protein): A (0 ≤ '% Ctrl' < 0.1) | GI50 [1]: 100 to 1000 nM | GI50 [2]: > 10000 nM | GI50 [3]: 1000 to 10000 nM

CNc1ccc2cc(C(=O)c3ccc4c(c3)CN(C3CCC(=O)NC3=O)C4=O)[nH]c2c1 (stereo not drawn) [Compound 22, 3-(5-(6-(methylamino)-1H-indole-2-carbonyl)-1-oxoisoindolin-2-yl)piperidine-2,6-dione]
CRBN binding affinity (% Ctrl @ 5µM) (Cereblon (CRBN) protein): A (0 ≤ '% Ctrl' < 0.1) | GI50 [1]: ≤ 100 nM | GI50 [2]: ≤ 100 nM | GI50 [3]: ≤ 100 nM

O=C1CCC(N2Cc3cc(C(=O)c4cc(-c5ccccc5)c[nH]4)ccc3C2=O)C(=O)N1 (stereo not drawn) [Compound 27, 3-(1-oxo-5-(4-phenyl-1H-pyrrole-2-carbonyl)isoindolin-2-yl)piperidine-2,6-dione]
CRBN binding affinity (% Ctrl @ 5µM) (Cereblon (CRBN) protein): A (0 ≤ '% Ctrl' < 0.1) | GI50 [1]: ≤ 100 nM | GI50 [3]: ≤ 100 nM

O=C1CCC(N2Cc3cc(C(=O)N4Cc5cccc6cccc4c56)ccc3C2=O)C(=O)N1 (stereo not drawn) [Compound 31, 3-(5-(1,2-dihydrobenxo[cd]indole-1-carbonyl)-1-oxoisoindolin-2-yl)piperidine-2,6-dione]
CRBN binding affinity (% Ctrl @ 5µM) (Cereblon (CRBN) protein): A (0 ≤ '% Ctrl' < 0.1) | GI50 [1]: 100 to 1000 nM | GI50 [3]: ≤ 100 nM

O=C1CCC(N2Cc3cc(C(=O)c4ccc(-c5ccccc5)cc4)ccc3C2=O)C(=O)N1 (stereo not drawn) [Compound 33, 3-(5-([1,1'-biphenyl]-4-carbonyl)-1-oxoisoindolin-2-yl)piperidine-2,6-dione]
GI50 [1]: ≤ 100 nM | GI50 [3]: ≤ 100 nM

O=C1CCC(N2Cc3cc(C(=O)c4cc5ccccc5o4)ccc3C2=O)C(=O)N1 (stereo not drawn) [Compound 34, 3-(5-(benzofuran-2-carbonyl)-1-oxoisoindolin-2-yl)piperidine-2,6-dione]
CRBN binding affinity (% Ctrl @ 5µM) (Cereblon (CRBN) protein): A (0 ≤ '% Ctrl' < 0.1) | GI50 [1]: ≤ 100 nM | GI50 [3]: ≤ 100 nM

O=C1CCC(N2Cc3cc(C(=O)c4cn(-c5ccccc5)c5ccccc45)ccc3C2=O)C(=O)N1 (stereo not drawn) [Compound 35, 3-(1-oxo-5-(1-phenyl-1H-indole-3-carbonyl)isoindolin-2-yl)piperidine-2,6-dione]
CRBN binding affinity (% Ctrl @ 5µM) (Cereblon (CRBN) protein): A (0 ≤ '% Ctrl' < 0.1) | GI50 [1]: ≤ 100 nM | GI50 [3]: ≤ 100 nM

O=C1CCC(N2Cc3cc(C(=O)N4Cc5ccccc5C4)ccc3C2=O)C(=O)N1 (stereo not drawn) [Compound 36, 3-(5-(isoindoline-2-carbonyl)-1-oxoisoindolin-2-yl)piperidine-2,6-dione]
CRBN binding affinity (% Ctrl @ 5µM) (Cereblon (CRBN) protein): A (0 ≤ '% Ctrl' < 0.1) | GI50 [1]: ≤ 100 nM

O=C1CCC(N2Cc3cc(C(=O)c4coc5ccccc45)ccc3C2=O)C(=O)N1 (stereo not drawn) [Compound 37, 3-(5-(benzofuran-3-carbonyl)-1-oxoisoindolin-2-yl)piperidine-2,6-dione]
CRBN binding affinity (% Ctrl @ 5µM) (Cereblon (CRBN) protein): C (1 ≤ % Ctrl' < 10) | GI50 [1]: 100 to 1000 nM | GI50 [3]: ≤ 100 nM

O=C1CCC(N2Cc3cc(C(=O)c4ccc5c(c4)OCO5)ccc3C2=O)C(=O)N1 (stereo not drawn) [Compound 42, 3-(5-(benzo[d][1,3]dioxole-5-carbonyl)-1-oxoisoindolin-2-yl)piperidine-2,6-dione]
GI50 [1]: ≤ 100 nM | GI50 [3]: ≤ 100 nM

O=C1CCC(N2Cc3cc(C(=O)c4ccc5ccccc5c4)ccc3C2=O)C(=O)N1 (stereo not drawn) [Compound 44, 3-(5-(2-naphthoyl)-1-oxoisoindolin-2-yl)piperidine-2,6-dione]
GI50 [1]: ≤ 100 nM | GI50 [3]: > 10000 nM

CN(C)c1ccc(C(=O)c2ccc3c(c2)CN(C2CCC(=O)NC2=O)C3=O)cc1 (stereo not drawn) [Compound 46, 3-(5-(4-(dimethylamino)benzoyl)-1-oxoisoindolin-2-yl)piperidine-2,6-dione]
GI50 [1]: ≤ 100 nM | GI50 [3]: ≤ 100 nM

O=C1CCC(N2Cc3cc(C(=O)c4ccc(Br)cc4)ccc3C2=O)C(=O)N1 (stereo not drawn) [Compound 49, 3-(5-(4-bromobenzoyl)-1-oxeisoindolin-2-yl)piperidine-2,6-dione]
GI50 [1]: ≤ 100 nM | GI50 [3]: 1000 to 10000 nM

O=C1CCC(N2Cc3cc(C(=O)c4ccc(O)cc4)ccc3C2=O)C(=O)N1 (stereo not drawn) [Compound 52, 3-(5-(4-hydroxybenzoyl)-1-oxoisoindolin-2-yl)piperidine-2,6-dione]
GI50 [1]: 100 to 1000 nM | GI50 [3]: ≤ 100 nM

O=C1CCC(N2Cc3cc(C(=O)c4ccc(C5CCCCC5)cc4)ccc3C2=O)C(=O)N1 (stereo not drawn) [Compound 55, 3-(5-(4-cyclohexylbenzoyl)-1-oxoisoindolin-2-yl)piperidine-2,6-dione]
GI50 [1]: ≤ 100 nM | GI50 [3]: ≤ 100 nM

Cn1c(C(=O)c2ccc3c(c2)CN(C2CCC(=O)NC2=O)C3=O)cc2ccccc21 (stereo not drawn) [Compound 59, 3-(5-(1-methyl-1H-indole-2-carbonyl)-1-oxoisoindolin-2-yl)piperidine-2,6-dione]
GI50 [1]: 100 to 1000 nM | GI50 [3]: ≤ 100 nM

CC(C)(C)c1ccc(C(=O)c2ccc3c(c2)CN(C2CCC(=O)NC2=O)C3=O)cc1 (stereo not drawn) [Compound 63, 3-(5-(4-(tert-butyl)benzoyl)-1-oxoisoindolin-2-yl)piperidine-2,6-dione]
GI50 [1]: ≤ 100 nM | GI50 [3]: ≤ 100 nM

O=C1CCC(N2Cc3cc(C(=O)c4ccc5ccccc5n4)ccc3C2=O)C(=O)N1 (stereo not drawn) [Compound 70, 3-(1-oxo-5-(quinoline-2-carbonyl)isoindolin-2-yl)piperidine-2,6-dione]
GI50 [1]: 1000 to 10000 nM | GI50 [3]: > 10000 nM
